# Results: article PMC7939391, “[4Fe-4S] cluster trafficking mediated by Arabidopsis mitochondrial ISCA and NFU proteins” (The Journal of Biological Chemistry, 2021)
# Molecular target: T1, ACO2 (Arabidopsis thaliana, UniProt Q94A28)
# T1 construct: untagged recombinant from pET15b (NcoI-XhoI), E. coli BL21(DE3); forward primer encodes start MASEHSY (transit peptide removed)
# T1 sequence (Q94A28 98-995): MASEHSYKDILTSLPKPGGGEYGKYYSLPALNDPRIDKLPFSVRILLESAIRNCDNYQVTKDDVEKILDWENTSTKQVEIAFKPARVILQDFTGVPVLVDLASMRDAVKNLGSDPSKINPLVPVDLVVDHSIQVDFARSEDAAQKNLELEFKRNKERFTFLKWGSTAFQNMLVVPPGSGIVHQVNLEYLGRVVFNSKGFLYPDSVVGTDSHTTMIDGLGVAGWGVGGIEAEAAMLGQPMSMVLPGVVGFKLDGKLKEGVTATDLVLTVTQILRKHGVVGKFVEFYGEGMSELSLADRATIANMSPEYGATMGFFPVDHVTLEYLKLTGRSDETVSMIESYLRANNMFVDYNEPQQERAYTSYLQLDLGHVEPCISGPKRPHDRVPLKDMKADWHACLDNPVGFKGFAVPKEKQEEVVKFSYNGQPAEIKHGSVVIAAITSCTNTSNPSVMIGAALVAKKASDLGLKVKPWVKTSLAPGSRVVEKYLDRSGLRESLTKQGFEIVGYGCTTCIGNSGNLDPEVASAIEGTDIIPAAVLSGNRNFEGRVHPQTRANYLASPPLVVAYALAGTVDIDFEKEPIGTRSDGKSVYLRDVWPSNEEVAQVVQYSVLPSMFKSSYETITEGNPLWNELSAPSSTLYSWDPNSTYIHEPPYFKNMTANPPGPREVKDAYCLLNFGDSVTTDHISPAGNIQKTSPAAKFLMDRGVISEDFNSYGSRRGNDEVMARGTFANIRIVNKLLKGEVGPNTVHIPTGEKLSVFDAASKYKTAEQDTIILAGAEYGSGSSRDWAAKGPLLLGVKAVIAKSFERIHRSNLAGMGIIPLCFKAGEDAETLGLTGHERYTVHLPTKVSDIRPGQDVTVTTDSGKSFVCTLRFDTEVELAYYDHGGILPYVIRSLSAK
# Test: absorbance at […] nm
# Assay type: biochemical
# Settings: from citrate or isocitrate; [4Fe-4S]-loaded enzyme
compound,measurement,value
O=C(O)/C=C(/CC(=O)O)C(=O)O [cis-aconitate],absorbance at 240 nm,following the formation of cis-aconitate from citrate or isocitrate
